Results taken from US12540150B1, “Fluorogenic probe using a Mislow-Evans rearrangement for real-time imaging of hydrogen peroxide” (University of Pittsburgh—Of the Commonwealth System of …, priority 2020, dated 2026).
Where “and” joins values, the source holds several entries; their conditions need not be identical. Identical values can stand only once. Like-named read-outs stand apart in the source and are kept apart here.

How the values were obtained:
[1] = 100 nM in water
Experimental: The pH dependence of phenol 5 was also investigated. Phenol 5 was dissolved in water to a concentration of 100 nM. This solution (100 mL) was titrated with HCl and NaOH. The pH was measured after each addition before measuring the fluorescence using a Horiba FluoroMax3 fluorescence spectrometer. Fluorescence was measured using 1 nm slit widths with an excitation wavelength of 496 nm and an emission wavelength of 510 nm, the results of which are shown in FIG. 23 and Table 15.

[2] = Fluorescence intensity of selenide 1 and phenol 5; assay type: physicochemical; conditions: pH 7
Experimental: All fluorescence measurements (excitation 490 nm, emission 510-570 nm) were carried out using a Promega Biosystems Modulus II Microplate Reader or a HoribaMax Fluorometer unless otherwise stated. Data analysis was performed using GraphPad Prism 8.
The fluorescence intensity of selenide 1 and phenol 5 were investigated. Solutions containing ultrapure water (681 μL), […] phosphate pH 7 buffer (31 μL), DMSO (28.1 μL), and 80 μM 1 or phenol 5 in DMSO (9.4 μL) were made. Aliquots of these solutions (200 μL) were transferred to the wells of a black 96-well plate and the fluorescence was measured. As evident from FIG. 10 and Table 1, the difference in fluorescence intensity of probe 1 and phenol 5, is 27-fold. Generally, O-alkylation of Pittsburgh Green suppresses the fluorescence by 200-400 fold. The somewhat modest fluorescence increase in the current system is attributed to the trace contamination of the fluorescent compound 5 during the purification of the nonfluorescent probe 1.

RAW cells = assay: Imaging of endogenous H2O2 upon ionomycin stimulation in RAW cells; assay type: cell-based; conditions: 5 μM probe
From the text: After detecting exogenously added H2O2 in cells, the focus shifted to more biologically relevant, endogenous H2O2. It was attempted to monitor endogenous H2O2 production upon stimulation with ionomycin in RAW cells. […] In contrast, with probe 1, a significant response was observed within 30 s after the addition of ionomycin relative to the baseline fluorescence (FIG. 24B-C) and peaked at 48 s.

O=c1ccc2c(-c3ccccc3CO)c3ccc(O)cc3oc-2c1 [Compound 5]
Fluorescence Intensity ([1]; pH 3.99): 920 | Fluorescence Intensity ([1]; pH 4.20): 930 | Fluorescence Intensity ([1]; pH 4.33): 1,070 | Fluorescence Intensity ([1]; pH 4.48): 1,450 | Fluorescence Intensity ([1]; pH 4.65): 1,440 | Fluorescence Intensity ([1]; pH 4.77): 1,670 | Fluorescence Intensity ([1]; pH 5.07): 2,790 | Fluorescence Intensity ([1]; pH 5.51): 5,280 | Fluorescence Intensity ([1]; pH 5.69): 7,130 | Fluorescence Intensity ([1]; pH 5.90): 10,250 | Fluorescence Intensity ([1]; pH 6.30): 18,790 | Fluorescence Intensity ([1]; pH 6.38): 18,720 | Fluorescence Intensity ([1]; pH 6.48): 22,820 | Fluorescence Intensity ([1]; pH 6.80): 27,620 | Fluorescence Intensity ([1]; pH 6.90): 31,730 | Fluorescence Intensity ([1]; pH 7.11): 34,510 | Fluorescence Intensity ([1]; pH 7.18): 35,740 | Fluorescence Intensity ([1]; pH 7.69): 39,880 | Fluorescence Intensity ([1]; pH 8.31): 41,950 | Fluorescence Intensity ([1]; pH 8.63): 42,930 | Fluorescence Intensity ([1]; pH 8.88): 44,240 | Fluorescence Intensity ([1]; pH 9.00): 43,280 | Fluorescence Intensity ([1]; pH 9.09): 43,110 | Fluorescence Intensity ([1]; pH 9.15): 43,140 | Fluorescence Intensity ([1]; pH 9.32): 43,550 | Fluorescence Intensity ([1]; pH 9.40): 43,850 | Fluorescence Intensity ([1]; pH 9.49): 43,340 | Fluorescence Intensity ([1]; pH 9.56): 45,080 | Fluorescence Intensity ([1]; pH 9.61): 44,640 | Fluorescence Intensity ([1]; pH 9.71): 43,930 | Fluorescence Intensity ([1]; pH 9.75): 42,610 | Fluorescence Intensity ([1]; pH 9.83): 44,070 | Fluorescence Intensity ([1]; pH 9.92): 43,670 | Fluorescence Intensity ([1]; pH 10.01): 41,900 | Fluorescence Intensity ([1]; pH 10.10): 42,170 | Fluorescence Intensity ([1]; pH 10.22): 42,800 | Fluorescence Intensity ([1]; pH 10.33): 42,170 | Fluorescence Intensity ([1]; pH 10.43): 42,570 | Fluorescence Intensity ([1]; pH 10.48): 42,410 | Fluorescence Intensity ([1]; pH 10.59): 40,450 | Fluorescence Intensity ([1]; pH 10.68): 41,370 | Fluorescence Intensity ([1]; pH 10.75): 40,520 | Fluorescence Intensity ([1]; pH 10.85): 40,140 | Fluorescence Intensity ([1]; pH 10.91): 38,790 | Fluorescence Intensity [2]: 244,687 and 247,204 and 246,848

CC(=O)Oc1cc2c(cc1Cl)C(c1ccccc1C(=O)O)c1cc(Cl)c(OC(C)=O)cc1O2 [dihydrodichlorofluorescein acetate, reference compound]
fluorescence response upon ionomycin addition (RAW cells): fluorescence increase could hardly be observed
